Laboratory results from ChEMBL document CHEMBL1201862, “PubChem BioAssay data set” (2004).
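Interpolation was linear, between the two tested concentrations surrounding the appropriate level; five concentrations were tested over 48 hours in 96-well plates. The concentration for 50% growth inhibition is given as GI50.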 Calls of active or inactive are those of the source. Rule as the data show it: active = GI50 up to about 1.1 µM and inactive = higher.

How the values were obtained:
Assay in all cases: DTP human tumour cell line panel, 48 h
[1] = system: RXF 631
[2] = system: DLD-1
[3] = system: XF498
[4] = system: DMS-273
[5] = system: SNB-78
[6] = system: LXFL 529
[7] = system: DMS-114
[8] = system: M19-MEL
[9] = system: HOP-18

Measured: GI50

Cc1ccc(NC(=O)CCc2n[nH]c(=S)o2)cc1
inactive: [1] > 100 µM | [2] > 100 µM | [3] > 100 µM | [4] > 100 µM | [5] > 100 µM | [6] > 100 µM | [7] > 100 µM | [8] > 100 µM | [9] > 100 µM

COC(=O)c1cccc2cccc(C(=O)Nc3ccc(C)cc3C)c12
inactive: [1] > 100 µM | [2] > 100 µM | [3] 54.6 µM | [4] > 100 µM | [5] > 100 µM | [6] > 100 µM | [7] > 100 µM | [8] > 100 µM | [9] 65.5 µM
